pIC50: −log10 of the molar value. Read-outs that look alike come from different tables or passages of the source.
Experiments:
[1] = tested on: endosomes and lysosomes of HT1080 cells; assay: Acridine Orange fluorescence, endosomal/lysosomal acidification; format: cell-based, human; conditions: 4 hours pre-incubation, DGP, diphyllin, 6DG 2, 1 or 0.1 μM, Bafilomycin 100 nM, NH4Cl 25 mM
Experimental: To determine whether DGP inhibited ZIKV infection by preventing the acidification of endosomes and lysosomes, Acridine Orange (AO) was used, a cell-permeable fluorescent dye marker that accumulates in low pH compartments such as endosomes and lysosomes.
HT1080 cells were pre-incubated for 4 hours with the Bafilomycin (FIG. 10A, 100 nM), NH4Cl (FIG. 10A, 25 mM), DGP (FIG. 10B: 2 μM, 1 μM, or 0.1 μM) diphyllin (FIG. 10C: 2 μM, 1 μM, or 0.1 μM), or 6DG (FIG. 10C: 2 μM, 1 μM, or 0.1 μM) to test whether DGP prevents endosomal/lysosomal acidification. After staining the cells with 1 μg/mL of AO, changes in fluorescence were measured using a Celesta flow cytometer on the PerCP-Cy5-5-A channel. A shift in the AO fluorescence is indicated with an arrow in FIGS. 10A-10D.
Acridine Orange (Invitrogen) staining was performed as described previously (Kanzawa, T. et al. 2004, “Role of autophagy in temozolomide-induced cytotoxicity for malignant glioma cells.” Cell Death Differ 11(4): 448-457). Cells were stained with 1 μg/mL AO in 10% FBS DMEM for 30 min at 37° C. and then collected by trypsinization. Changes in fluorescence were measured using a Celesta flow cytometer in the PerCP-Cy5-5-A channel.

ZIKV strain MR766 = ZIKV strain MR766 infection, 4G2 antibody flow cytometry; conditions: for pIC50: Zika virus
DENV1-RVP = format: cell-based, dengue virus; conditions: VERO cells; DGP 1 μM; NH4Cl 20 mM
TBEV-RVP = format: cell-based, tick-borne encephalitis virus
WNV-RVP = format: cell-based, West Nile virus; conditions: VERO cells; DGP 1 μM; NH4Cl 20 mM
EBV RVP = format: cell-based, Ebola virus
JEV-RVP = format: cell-based, Japanese encephalitis virus; conditions: VERO cells; DGP 1 μM; NH4Cl 20 mM
Sendai Virus (SeV) = assay: Sendai Virus infection and IFN-β production in CHME3 cells; format: cell-based; conditions: SeV MOI 1 and 10, DGP 1 μM, NH4Cl 20 mM
Experimental: The Flaviviridae family of viruses encode a glycoprotein that is necessary to achieve fusion at the endosomal/lysosomal membranes, the step that releases viral components into the cytoplasm. […] Instead, SeV fuses at the plasma membrane. To this end, IFN-β production and viral infection were measured in CHME3 cells infected with SeV at an MOI 1 and 10 in the presence of DGP (1 μM) or 20 mM NH4Cl.
To detect viral copies of ZIKV and Sendai Virus (SeV) by qRT-PCR, cells were seeded in 24-well plates, with or without DGP treatment, and infected with the virus at the indicated MOI for 48 h. After the incubation period, total RNA from HT1080, VERO, and CHME3 cells was isolated and purified using Trizol (Invitrogen). For detection of ZIKV viral load in brain and spleen, 3 mice were sacrificed at 6 days post-infection and total RNA was extracted from the brain and spleen. For cDNA synthesis, 1 ng of total RNA was reverse transcribed. The reaction mixture included 1 mM of deoxyribonucleotide phosphates (dNTPs), 2 nM of the specific reverse primer of ZIKV or SeV, 1× M-MULV buffer, 10 U M-MuLV RT (BioLabs), and 2 U of RNase Inhibitor. The reaction mixture was incubated for 1 hour at 42° C. followed by 20 min at 65° C. to inactivate the enzyme. For actin detection, Oligo-dT was used to reverse transcribe total RNA.
ZIKV RNA levels were measured using real-time PCR. HT1080 and VERO cells were challenged by ZIKV MR766 at an MOI of 1 in the presence of DGP. At 48 hours post-challenge, cells were lysed and total RNA was extracted using trizol. Total RNA was used to determine the levels of ZIKV RNA by real-time PCR using specific primers against ZIKA. qRT-PCR was carried out using SYBR green in a 20-μl final volume using a MASTERCYCLER proS machine. The primers used to detect ZIKV were: SEQ ID NO. 1: 5′-TT […]-3′-Forward (Genome Position 941-964) and SEQ ID NO. 2: 5′-[…]-3′-Reverse (Genome position 1123-1103) (AY632535.2). For the detection of SeV, the following primers were used: SEQ ID NO. 3: 5′-[…]-3′-Forward (Genome position 210-233) and SEQ ID NO. 4: 5′-[…]-3′-Reverse (Genome position 332-307) (M30202. Genome position 210-332) (Wagner, A. M. et al. 2003, “Detection of sendai virus and pneumonia virus of mice by use of fluorogenic nuclease reverse transcriptase polymerase chain reaction analysis.” Comp Med 53(2): 173-177). For the detection of IFN-β the following primers were used: SEQ ID NO. 5: Forward 5-[…]-3′ (Genome position 644-668) and SEQ ID Na 6: Reverse 5′-[…]-3′ (Genome position 718-697) (NM_002176.2) and for actin detection: SEQ ID NO. 7: 5′-[…]-′3-Forward and SEQ ID NO. 8: 5′-[…]′3-Reverse. ZIKA viral RNA levels were normalized to actin (upper panels). […]

ZIKV = conditions: cited from earlier work
[2] = tested on: HT1080, CHME3, VERO cells; assay: MTT cell viability assay; format: cell-based, human and monkey; conditions: human or monkey cells (HT1080, CHME3, VERO); 48 hours
Experimental: Cell viability was determined by measuring the reduction of the tetrazolium dye MTT [3-(4,5-dimethylthiazol-2-yl)-2,5-diphenyltetrazolium bromide] to its insoluble form formazan. We treated 4×10^3 cells/well in a 96-well plate with serial dilutions of the indicated drugs. Human and monkey cells were incubated with DGP, diphyllin, or 6-deoxy-D-glucose for 48 hours at 37° C. After the incubation period, 10 μl MTT solution (5 mg/mL) was added to each well for an additional 4 hours at 37° C. Finally, the media was removed and dimethyl sulfoxide was added (200 μl/well) according to the manufacturer's instructions. The optical density was measured at 570 nm using a microplate reader. Experiments were performed in triplicates and standard deviations are shown. Mock-treated cells represent 100% viability.

C[C@@H](O)[C@@H](O)[C@H](O)[C@@H](O)C=O [Formula 6DG, 6-deoxyglucose, reference compound]
acidification of endosomes and lysosomes (AO fluorescence) [1]: did not prevent

Cl.N [NH4Cl, ammonium chloride, reference compound]
percentage of 4G2-positive cells (ZIKV strain MR766; CHME3 cells, MOI 1, DGP 0.1 and 1 μM, NH4Cl 20 mM, 48 hours): substantial decrease | DENV1 RVP infection (DENV1-RVP): inhibited infection | TBEV RVP infection (TBEV-RVP): inhibited infection | acidification of endosomes and lysosomes (AO fluorescence) [1]: prevent endosomal and lysosomal acidification | WNV RVP infection (WNV-RVP): inhibited infection | EBV RVP infection (EBV RVP): inhibited infection | JEV RVP infection (JEV-RVP): inhibited infection | IFN-β production in SeV-infected cells (Sendai Virus (SeV)): increased induction | SeV infection / viral replication (Sendai Virus (SeV)): increased viral replication

CCN(CCO)CCCC(C)Nc1ccnc2cc(Cl)ccc12 (stereo not shown) [hydroxychloroquine]
required inhibitory concentrations for ZIKV in cell culture (ZIKV): micromolar range

COc1cc2c(O)c3c(c(-c4ccc5c(c4)OCO5)c2cc1OC)C(=O)OC3 [diphyllin, Diphyllin]
toxicity at concentrations required to inhibit ZIKV infection (MTT) [2]: not toxic | pIC50 (ZIKV strain MR766; HT-1080, read-out: IC50, ZIKV infection): 7.22 | pIC50 (ZIKV strain MR766; read-out: IC50, ZIKV infection): 6.68 | acidification of endosomes and lysosomes (AO fluorescence) [1]: prevented the acidification of endosomes and lysosomes but to a lesser extent

CCN(CC)CCCC(C)Nc1ccnc2cc(Cl)ccc12 (stereo not shown) [chloroquine]
required inhibitory concentrations for ZIKV in cell culture (ZIKV): micromolar range

From patent publication US20220323471A1 (priority 2019, published 2022)
